Literature values in publication PMC12154426, “TPP-Based Nanovesicles Kill MDR Neuroblastoma Cells and Induce Moderate ROS Increase, While Exerting Low Toxicity Towards Primary Cell Cultures: An In Vitro Study” (International Journal of Molecular Sciences, 2025).
Where two headings read alike, the source gives them in different places.

Assays:
Hela = test system: Hela; set-up: method as in PMID 36084362; conditions: 24 h exposure, cited from earlier work
[1] = set-up: method as in PMID 36084362; conditions: MFC-7, 24 h exposure, cited from earlier work
A-375 cancer cells = test system: A-375 cancer cells; set-up: method as in PMID 28151482; conditions: 24 h exposure; 30 µM vemurafenib, 50 µM TRAM-34, or their combination; cited from earlier work

In the case of “2,9,16,23-tetrakis(N-(N-butyl-4-triphenyl-phosphonium)-pyridine-4-yloxy) Zn(II) Pc [compound 3]”, the IC50 (Hela; PDT/SDT) is given as 12.7 µM, the IC50 (Hela; PDT) is given as 21.8 µM and the IC50 (Hela; SDT) is given as 14.3 µM. The IC50 ([1]; PDT/SDT) was 13.2 µM, the IC50 ([1]; PDT) was 43.3 µM and the IC50 ([1]; SDT) was 18.2 µM.
In the case of “2,9,16,23-tetrakis-(N-(N-butyl-4-triphenyl-phosphonium)-morpholino) Zn(II) Pc [compound 4]”, the IC50 (Hela; PDT/SDT) is listed as 14.4 µM, the IC50 (Hela; PDT) is listed as 25.6 µM and the IC50 (Hela; SDT) is listed as 17.2 µM. The IC50 ([1]; PDT/SDT) was 15.5 µM, the IC50 ([1]; PDT) was 45 µM and the IC50 ([1]; SDT) was 20.5 µM.
In the case of Clc1ccccc1C(c1ccccc1)(c1ccccc1)n1cccn1 [TRAM-34], the “ROS increase with respect to the control” value (A-375 cancer cells) is listed as roughly 30%.
In the case of CCCS(=O)(=O)Nc1ccc(F)c(C(=O)c2c[nH]c3ncc(-c4ccc(Cl)cc4)cc23)c1F [vemurafenib], the “ROS increase with respect to the control” value (A-375 cancer cells) is given as “about 38%”.
